# Data as given in patent US11479587B2, “Cationic intrinsically disordered antimicrobial peptides” (priority 2016, dated 2022).
# Marks after values point to notes of the source that are not given here. No end group written: not given here. *: point of attachment. Biotin = O=C1N[C@H]2[C@H](CS[C@H]2CCCCC(=O)*)N1
# Test system: P. aeruginosa ATCC 10145
# Assay: CFU-assay, P. aeruginosa-cidal activity
# Type: cell-based, Pseudomonas aeruginosa
# Conditions: pH 5.0, 0.25% glucose
Substance,MBC90 [µg/mL],MBC100 [µg/mL]
GHHGGGGGHGGGHGGHGGGGGH (Modified peptide derived from human hornerin (HR 1-18 G+H)) [HR 1-18 G + H],<0.006,0.09
Biotin-GRHGSGLGHSSSHGQHGSGSGR [Biotin-HR 1-18],,>300
GRHGGGGGHGGGHGGHGGGGGR (Modified peptide derived from human hornerin (HR 1-18 L-G/Q-G/6S-6G)),0.038,0.15
SLSSGHGSGHGHQRGGHRSGSG (Peptide with scrambled amino acid sequence of a 18 amino acid peptide derived from human hornerin (scrHR 1-18)),<0.019,0.075
GRHGSGGGHSSSHGGHGSGSGR (Modified peptide derived from human hornerin (HR 1-18 L-G/Q-G)),0.038,0.15

# Same assay, conditions: pH 5.5, 0.25% glucose
Substance,MBC90,MBC100,MBC99
HTHSGHTHGQARSQHGESESIVHER (Peptide derived from human filaggrin-2 (FLG-2 1742-1766)) [FLG-21742-1766],0.038 µg/mL,0.15 µg/mL,
LGHSSSHGQHGSGSGRSSSRGPYESRLGH [HR 1-36 HRNR2663-2690],0.15 µg/mL,2.35 µg/mL,
TAGRRGSGH (Peptide derived from human filaggrin-2 (FLG-2 2097-2105)) [FLG-22097-2105],>300 µg/mL,>300 µg/mL,
GHHGGGGGHGGGHGGHGGGGGH (Modified peptide derived from human hornerin (HR 1-18 G+H)) [HR 1-18 G + H],<0.006 µM,0.09 µM,
RHGSGLGHSSSH (Peptide derived from human hornerin (HR 1-27 HRNR 2657-2668)) [HR 1-27 HRNR2657-2668],75-100* μg/ml,,
HGHGH (Synthetic cationic intrinsically disordered antimicrobial peptide (GH5)),6.0 µM,138 µM,
RGRGR (Synthetic cationic intrinsically disordered antimicrobial peptide (GR5)),6.1 µM,>500 µM,
THEHEQSHQRRDRQTHEDKQNRQR (Peptide derived from human repetin (RPTN 747-770)) [RPTN747-770],0.3 µg/mL,150 µg/mL,
QGSHHEQSVNRSGHSGSHHSHTTSQGR (Peptide derived from human filaggrin (FLG 528-554)) [FLG528-554],0.15 µg/mL,0.59 µg/mL,
HTHSGHAHGQAGSQHGESGSSVHER (Peptide derived from human filaggrin-2 (FLG-2 2044-2068)) [FLG-22044-2068],0.038 µg/mL,0.3 µg/mL,
RGRGRGRGR (Synthetic cationic intrinsically disordered antimicrobial peptide (GR9)),0.22 µM,">400, μM",MBC99: 10.2 μM
GRHGSGLGHSSSH (Peptide derived from human hornerin (HR 1-37 HRNR 2656-2668)) [HR 1-37 HRNR2656-2668],9.38 µg/mL,>300 µg/mL,
HTHSGHTHGQSGSQHGESESIIHDR (Peptide derived from human filaggrin-2 (FLG-2 1515-1539)) [FLG-21515-1539],0.075 µg/mL,0.59 µg/mL,
HAHYGYGQSTQRGSRTTGRRGSGH (Peptide derived from human filaggrin-2 (FLG-2 2232-2255)) [FLG-22232-2255],0.075 µg/mL,0.59 µg/mL,
HGH (Synthetic cationic intrinsically disordered antimicrobial peptide (GH3)),200 µM,>860 µM,
HAHSGHGQSTQR (Peptide derived from human filaggrin-2 (FLG-2 2082-2093)) [FLG-22082-2093],0.15 µg/mL,2.35 µg/mL,
HGQSTQRGSRTAGRRGSGH (Peptide derived from human filaggrin-2 (FLG-2 2087-2105)) [FLG-22087-2105],0.075 µg/mL,1.18 µg/mL,
RGR (Synthetic cationic intrinsically disordered antimicrobial peptide (GR3)),150 µM,>930 µM,
RGRGRGR (Synthetic cationic intrinsically disordered antimicrobial peptide (GR7)),0.31 µM,2.8 µM,
HTHSGHTHGQAGSHYPESGSSVHER (Peptide derived from human filaggrin-2 (FLG-2 1969-1993)) [FLG-21969-1993],0.038 µg/mL,0.3 µg/mL,
RHGSGLGHSSSHGQH (Peptide derived from human hornerin (HR 1-26 HRNR 2657-2671)) [HR 1-26 HRNR2657-2671],,4.7-75* μg/ml,
HAHSGHGQSTQRGSR (Peptide derived from human filaggrin-2 (FLG-2 2082-2096)) [FLG-22082-2096],0.15 µg/mL,1.18 µg/mL,
HGHGHGHGH (Synthetic cationic intrinsically disordered antimicrobial peptide (GH9)),0.18 µM,">400, μM",MBC99: 99 μM
GSRTAGRRGSGH (Peptide derived from human filaggrin-2 (FLG-2 2094-2105)) [FLG-22094-2105],,>300 µg/mL,
GKKGGKGGKGKGK (Synthetic cationic intrinsically disordered antimicrobial peptide (K-GR13)),0.063 µM,2.0 µM,
GRHGSGSGQSSSYSPYGSGSGWSSSR (Peptide derived from human hornerin (HRNR 2422-2447)) [HRNR2422-2447],,>300 µg/mL,
HSSSHGQHGSGSGR (Peptide derived from human hornerin (HR 1-38 HRNR 2664-2677)) [HR 1-38 HRNR2664-2677],,>300 µg/mL,
HGHGHGH (Synthetic cationic intrinsically disordered antimicrobial peptide (GH7)),0.25 µM,7.2 µM,

# Same assay, conditions: pH 5.5, 0.25% glucose; listed as HR 1-18 G+H
Substance,MBC90 [µg/mL],MBC100 [µg/mL]
GHHGGGGGHGGGHGGHGGGGGH (Modified peptide derived from human hornerin (HR 1-18 G+H)) [HR 1-18 G + H],< 0.019,0.075

# Same assay, conditions: pH 5.5, 1% TSB
Substance,MBC90,MBC100
GGSRSGQSSRGERHGSSSGSSSH (Modified peptide derived from human hornerin (HR 1-11 H1-GH2606G))) [HR 1-11 H1-G H2606G],>300* μg/ml,>300* μg/ml
GSGSRQSSGHGRQGSGSGQ (Modified peptide derived from human hornerin (HR 1-16 HRNR 2633-2651)) [HR 1-16 HRNR2633-2651],>300 µg/mL,>300 µg/mL
HGSRSGQSSGGERHGSSSGSSSH (Modified peptide derived from human hornerin (HR 1-11 R2-G R2615G)),75 µg/mL,>300 µg/mL
HGSRSGQSSGGGRHGSSSGSSSH (Modified peptide derived from human hornerin (HR 1-11 E-G E2617G)),0.59 µg/mL,>300 µg/mL
HGSSSGSSSHYGQHGSGSR (Peptide derived from human hornerin (HR 1-4 HRNR 2619-2637)) [HR 1-4 HRNR2619-2637],150 µg/mL,>300 µg/mL
GSGSRQSSSYGRHGSGSGR (Modified peptide derived from human hornerin (HR 2-4S HRNR 1132-1150 P1139S)) [HR 2-4S HRNR1132-1150 P1139S],150 µg/mL,>300 µg/mL
GSGSRQSPSYGRHGSGSGRSSSSGQH (Peptide derived from human hornerin (HR 2-11 HRNR 1132-1157)) [HR 2-11 HRNR1132-1157],37.5 µg/mL,>300 µg/mL
GRHGSGSGQSSSYGPYGSGSGWSSSRGPY (Peptide derived from human hornerin (HRNR 1952-1980)) [HRNR1952-1980],,>300 µg/mL
SRQSPSYGRHGSGR (Modified peptide derived from human hornerin (HR 2-15 HRNR 1136-1150 S1148R)) [HR 2-15 HRNR1136-1150 S1148R],75 µg/mL,>300 µg/mL
GSGSRQSPSHGRHGSGSGR (Modified peptide derived from human hornerin (HR 2-4H HRNR 1132-1150 Y1141H)) [HR 2-4H HRNR1132-1150 Y1141H],75 µg/mL,>300 µg/mL
GRHGSGLGHSSSHGQH (Peptide derived from human hornerin (HR 1-25 HRNR 2656-2671)) [HR 1-25 HRNR2656-2671],0.3 µg/mL,4.7 µg/mL
GSGSRQSLSYGRHGSGSGR (Modified peptide derived from human hornerin (HR 2-4L HRNR 1132-1150 P1139L)) [HR 2-4L HRNR1132-1150 P1139L],75 µg/mL,>300 µg/mL
GSGSRQSPSYGRQGSGSGR (Modified peptide derived from human hornerin (HR 2-4Q HRNR 1132-1150 H1144Q)) [HR 2-40 HRNR1132-1150 H1144Q],>300 µg/mL,>300 µg/mL
HGSRSGQSSRGEGHGSSSGSSSH (Modified peptide derived from human hornerin (HR 1-11 R3-G R2618G)),75 µg/mL,>300 µg/mL
GSGSRQSPSRGRHGSGSGR (Modified peptide derived from human hornerin (HR 2-4R HRNR 1132-1150 Y1141R)) [HR 2-4R HRNR1132-1150 Y1141R],,>300 µg/mL

# Same assay, conditions: pH 7.0, 0.25% glucose
Substance,MBC90 [µg/mL],MBC100 [µg/mL]
GHHGGGGGHGGGHGGHGGGGGH (Modified peptide derived from human hornerin (HR 1-18 G+H)) [HR 1-18 G + H],>300,>300
GRHGGGGGHGGGHGGHGGGGGR (Modified peptide derived from human hornerin (HR 1-18 L-G/Q-G/6S-6G)),>300,>300
GRHGSGGGHSSSHGGHGSGSGR (Modified peptide derived from human hornerin (HR 1-18 L-G/Q-G)),>300,>300
